Patent US11109588B2, “Stable liquid formulations and methods of using the same” (priority 2019, dated 2021)

Assay: Storage stability of liquid compositions in a sealed container, 8 weeks at 40° C., loss by HPLC
Format: physicochemical
Settings: inert ingredients of Composition #7 of Table 3, aged 8 weeks at 40° C.

## COC(=O)c1sccc1S(=O)(=O)NC(=O)Nc1nc(C)nc(OC)n1 [Thifensulfuron-methyl, thifensulfuron-methyl]
  relative loss of thifensulfuron-methyl: less than 5 % w/w
